Measured values as given in US7585859B2, “PDE4B inhibitors and uses therefor” (Plexxikon, Inc., priority 2004, dated 2009).
pIC50: −log10 of the molar value. Like-named read-outs stand apart in the source and are kept apart here.

Assays:
[1] = molecular target: T1, PDE4B: The catalytic domain of human PDE4B from S152-S528 (Homo sapiens, UniProt Q07343); experiment: PDE4 IC50 determination by Scintillation Proximity Assay, PDE4B; assay type: biochemical
T1 construct: His6 (N); thrombin cleavage site (N); made in house; host or cells: E. coli
T1 sequence (Q07343 with tags, fused parts or gaps): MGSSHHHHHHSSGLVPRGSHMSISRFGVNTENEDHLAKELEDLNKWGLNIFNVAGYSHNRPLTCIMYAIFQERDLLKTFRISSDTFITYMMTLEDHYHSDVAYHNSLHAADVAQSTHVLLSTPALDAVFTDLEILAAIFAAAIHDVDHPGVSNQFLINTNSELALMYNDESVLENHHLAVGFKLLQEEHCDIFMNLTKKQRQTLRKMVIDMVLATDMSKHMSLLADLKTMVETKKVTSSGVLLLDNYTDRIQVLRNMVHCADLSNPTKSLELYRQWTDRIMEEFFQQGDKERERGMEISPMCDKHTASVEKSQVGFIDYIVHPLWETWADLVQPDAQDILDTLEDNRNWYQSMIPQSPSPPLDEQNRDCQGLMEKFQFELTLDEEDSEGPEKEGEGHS
Summary of the method: (§1)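 Scintillation counts reflected [^3H]AMP captured on yttrium silicate SPA beads after enzyme hydrolysed [^3H]cAMP for 30 min at 30°. PDE4B was used at 80 ng/ml and PDE4D at 4 ng/ml. IC50 values came from non-linear regression.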

PDE4D = molecular target: T2, PDE4D (Homo sapiens, UniProt Q08499); experiment: PDE4 IC50 determination by Scintillation Proximity Assay, PDE4D; assay type: biochemical
T2 construct: PDE4D: The catalytic domain of human PDE4B from S3 16-V692; His6 (N); thrombin cleavage site (N); made in house; host or cells: E. coli
T2 sequence (Q08499 380-756): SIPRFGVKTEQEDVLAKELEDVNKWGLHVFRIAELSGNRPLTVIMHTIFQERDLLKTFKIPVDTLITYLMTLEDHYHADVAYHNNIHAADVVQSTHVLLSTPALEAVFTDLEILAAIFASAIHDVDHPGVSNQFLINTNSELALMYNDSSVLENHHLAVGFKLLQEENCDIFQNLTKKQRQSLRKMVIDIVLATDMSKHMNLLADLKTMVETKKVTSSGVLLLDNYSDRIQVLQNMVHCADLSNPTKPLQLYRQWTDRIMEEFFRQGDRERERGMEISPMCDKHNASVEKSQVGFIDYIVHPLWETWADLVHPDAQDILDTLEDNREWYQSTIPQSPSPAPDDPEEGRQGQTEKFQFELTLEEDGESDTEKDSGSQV
Summary of the method: as §1

[2] = first part of Table 2B (2-1 to 2-22), read-out: IC 50 vs. indicated assay PDE4B
[3] = first part of Table 2B (2-1 to 2-22), read-out: IC 50 vs. indicated assay PDE4D
[4] = second part of Table 2B (2-23 to 2-103), column 3, column is PDE4B in first part, read-out: IC 50 vs. indicated assay h TNFα
[5] = second part of Table 2B (2-23 to 2-103), column 5, column is PDE4D in first part, read-out: IC 50 vs. indicated assay h TNFα

Row | pIC50 [1, 2] | pIC50 (PDE4D; [3]) | pIC50 [1, 4] | pIC50 (PDE4D; [5]) | SMILES | also measured
1 |  |  | > 5.00 | > 5.00 | Nc1nc(Nc2ccccc2)sc1C(=O)c1ccccc1 [Compound 2-25, (4-Amino-2-phenylamino-thiazol-5-yl)-phenyl-methanone] | 
2 |  |  | > 5.00 | > 5.00 | Nc1nc(Nc2ccc(Cl)cc2)sc1C(=O)c1ccccc1 [Compound 2-26, [4-Amino-2-(4-chloro-phenylamino)-thiazol-5-yl]-phenyl-methanone] | 
3 |  |  | > 5.00 | > 5.00 | Nc1nc(Nc2ccc(Cl)cc2)sc1C(=O)c1ccc(Br)cc1 [Compound 2-27, [4-Amino-2-(4-chloro-phenylamino)-thiazol-5-yl]-(4-bromo-phenyl)-methanone] | 
4 |  |  | > 5.00 | > 5.00 | Nc1nc(Nc2ccc(F)cc2)sc1C(=O)c1ccc(F)cc1 [Compound 2-28, [4-Amino-2-(4-fluoro-phenylamino)-thiazol-5-yl]-(4-fluoro-phenyl)-methanone] | 
5 |  |  | > 5.00 | > 5.00 | Nc1nc(Nc2ccccc2Cl)sc1C(=O)c1ccccc1 [Compound 2-29, [4-Amino-2-(2-chloro-phenylamino)-thiazol-5-yl]-phenyl-methanone] | 
6 |  |  | > 5.00 | > 5.00 | COc1ccc(C(=O)c2sc(Nc3ccccc3)nc2N)cc1OC [Compound 2-31, (4-Amino-2-phenylamino-thiazol-5-yl)-(3,4-dimethoxy-phenyl)-methanone] | 
7 |  |  | > 5.00 | > 5.00 | Nc1nc(Nc2cc(Cl)ccc2Cl)sc1C(=O)c1ccccc1 [Compound 2-32, [4-Amino-2-(2,5-dichloro-phenylamino)-thiazol-5-yl]-phenyl-methanone] | 
8 |  |  | > 5.00 | > 5.00 | Nc1nc(Nc2cccc(C(=O)O)c2)sc1C(=O)c1ccccc1 [Compound 2-36, 3-(4-Amino-5-benzoyl-thiazol-2-ylamino)-benzoic acid] | 
9 |  |  | > 5.00 | > 5.00 | COc1ccc(C(=O)c2sc(Nc3ccccc3)nc2N)cc1 [Compound 2-37, (4-Amino-2-phenylamino-thiazol-5-yl)-(4-methoxy-phenyl)-methanone] | 
10 |  |  | > 5.00 | > 5.00 | COc1ccc(Nc2nc(N)c(C(=O)c3ccccc3)s2)cc1 [Compound 2-39, [4-Amino-2-(4-methoxy-phenylamino)-thiazol-5-yl]-phenyl-methanone] | 
11 |  |  | > 5.00 | > 5.00 | Nc1nc(Nc2c(Cl)cccc2Cl)sc1C(=O)c1ccc(OC(F)F)cc1 [Compound 2-42, [4-Amino-2-(2,6-dichloro-phenylamino)-thiazol-5-yl]-(4-difluoromethoxy-phenyl)-methanone] | 
12 |  |  | > 5.00 | < 5.00 | Nc1nc(Nc2c(Cl)cc(Cl)cc2Cl)sc1C(=O)c1ccccc1 [Compound 2-43, [4-Amino-2-(2,4,6-trichloro-phenylamino)-thiazol-5-yl]-phenyl-methanone] | 
13 |  |  | > 5.00 | > 5.00 | N#Cc1cccc(Nc2nc(N)c(C(=O)c3ccc(Oc4ccccc4)cc3)s2)c1 [Compound 2-46, 3-[4-Amino-5-(4-phenoxy-benzoyl)-thiazol-2-ylamino]-benzonitrile] | 
14 |  |  | > 5.00 | > 5.00 | COc1ccc(C(=O)c2sc(Nc3cccc(C#N)c3)nc2N)cc1 [Compound 2-48, 3-[4-Amino-5-(4-methoxy-benzoyl)-thiazol-2-ylamino]-benzonitrile] | 
15 |  |  | > 5.00 | > 5.00 | COc1ccc(C(=O)c2sc(Nc3ccc(Oc4ccccc4)cc3)nc2N)cc1 [Compound 2-49, [4-Amino-2-(4-phenoxy-phenylamino)-thiazol-5-yl]-(4-methoxy-phenyl)-methanone] | 
16 |  |  | > 5.00 | > 5.00 | Nc1nc(Nc2ccccc2F)sc1C(=O)c1cccc(Cl)c1 [Compound 2-50, [4-Amino-2-(2-fluoro-phenylamino)-thiazol-5-yl]-(3-chloro-phenyl)-methanone] | 
17 |  |  | > 5.00 | > 5.00 | COc1ccc(Nc2nc(N)c(C(=O)c3cccc(Cl)c3)s2)cc1 [Compound 2-51, [4-Amino-2-(4-methoxy-phenylamino)-thiazol-5-yl]-(3-chloro-phenyl)-methanone] | 

Second part, the compound before the results:

Row | SMILES | pIC50 [1, 2] | pIC50 (PDE4D; [3]) | pIC50 [1, 4] | pIC50 (PDE4D; [5]) | also measured
18 | N#Cc1c(NC2CCCC2)sc(C(=O)c2csc(-c3ccccc3)n2)c1N [Compound 1-235, 4-Amino-2-cyclopentylamino-5-(2-phenyl-thiazole-4-carbonyl)-thiophene-3-carbonitrile] |  |  |  |  | pIC50 ([1]; Table 1B, Formula I compounds, read-out: IC50 PDE4B): > 5.00; pIC50 (PDE4D; Table 1B, Formula I compounds, read-out: IC50 PDE4D): > 5.00
19 | CCOC(=O)c1cc(C(=O)c2sc(Nc3ccc(OC)cc3)nc2N)on1 [Compound 2-2, 5-[4-Amino-2-(4-methoxy-phenylamino)-thiazole-5-carbonyl]-isoxazole-3-carboxylic acid ethyl ester] | > 5.00 | > 5.00 |  |  | 
20 | CCOC(=O)c1cc(C(=O)c2sc(Nc3ccc(Oc4ccccc4)cc3)nc2N)on1 [Compound 2-3, 5-[4-Amino-2-(4-phenoxy-phenylamino)-thiazole-5-carbonyl]-isoxazole-3-carboxylic acid ethyl ester] | < 5.00 | < 5.00 |  |  | 
21 | CCOC(=O)c1cc(C(=O)c2sc(NC3CCCC3)nc2N)on1 [Compound 2-4, 5-(4-Amino-2-cyclopentylamino-thiazole-5-carbonyl)-isoxazole-3-carboxylic acid ethyl ester] | > 5.00 | > 5.00 |  |  | 
22 | CCOC(=O)c1cc(C(=O)c2sc(NC3CC3)nc2N)on1 [Compound 2-5, 5-(4-Amino-2-cyclopropylamino-thiazole-5-carbonyl)-isoxazole-3-carboxylic acid ethyl ester] | > 5.00 | > 5.00 |  |  | 
23 | COc1ccc(Nc2nc(N)c(C(=O)c3cc(-c4ccccc4)no3)s2)cc1 [Compound 2-7, [4-Amino-2-(4-methoxy-phenylamino)-thiazol-5-yl]-(3-phenyl-isoxazol-5-yl)-methanone] | > 5.00 | > 5.00 |  |  | 
24 | Nc1nc(NC2CC2)sc1C(=O)c1cc(-c2ccccc2)no1 [Compound 2-10, (4-Amino-2-cyclopropylamino-thiazol-5-yl)-(3-phenyl-isoxazol-5-yl)-methanone] | > 5.00 | > 5.00 |  |  | 
25 | CC(C)Nc1nc(N)c(C(=O)c2cc(-c3ccccc3)no2)s1 [Compound 2-11, (4-Amino-2-isopropylamino-thiazol-5-yl)-(3-phenyl-isoxazol-5-yl)-methanone] | > 5.00 | > 5.00 |  |  | 
26 | Nc1nc(NC2CCCC2)sc1C(=O)c1cc(-c2ccc(Cl)cc2)no1 [Compound 2-12, (4-Amino-2-cyclopentylamino-thiazol-5-yl)-[3-(4-chloro-phenyl)-isoxazol-5-yl]-methanone] | > 5.00 | > 5.00 |  |  | 
27 | CC(C)Nc1nc(N)c(C(=O)c2cc(-c3ccc(Cl)cc3)no2)s1 [Compound 2-13, (4-Amino-2-isopropylamino-thiazol-5-yl)-[3-(4-chloro-phenyl)-isoxazol-5-yl]-methanone] | > 5.00 | > 5.00 |  |  | 
28 | CC(C)Nc1nc(N)c(C(=O)c2cc(-c3ccc(Cl)c(Cl)c3)no2)s1 [Compound 2-14, (4-Amino-2-isopropylamino-thiazol-5-yl)-[3-(3,4-dichloro-phenyl)-isoxazol-5-yl]-methanone] | > 5.00 | > 5.00 |  |  | 
29 | CC(C)CNc1nc(N)c(C(=O)c2cc(-c3ccc(Cl)c(Cl)c3)no2)s1 [Compound 2-15, (4-Amino-2-isobutylamino-thiazol-5-yl)-[3-(3,4-dichloro-phenyl)-isoxazol-5-yl]-methanone] | > 5.00 | > 5.00 |  |  | 
30 | CC(C)CNc1nc(N)c(C(=O)c2cc(-c3ccc(Cl)cc3)no2)s1 [Compound 2-16, (4-Amino-2-isobutylamino-thiazol-5-yl)-[3-(4-chloro-phenyl)-isoxazol-5-yl]-methanone] | > 5.00 | > 5.00 |  |  | 
31 | Nc1nc(NC2CCCC2)sc1C(=O)c1ccc(-c2ccccn2)s1 [Compound 2-17, (4-Amino-2-cyclopentylamino-thiazol-5-yl)-(5-pyridin-2-yl-thiophen-2-yl)-methanone] | > 5.00 | > 5.00 |  |  | 
32 | Nc1nc(NC2CCCC2)sc1C(=O)c1ccc(-c2ccccc2)s1 [Compound 2-18, (4-Amino-2-cyclopentylamino-thiazol-5-yl)-(5-phenyl-thiophen-2-yl)-methanone] | > 5.00 | > 5.00 |  |  | 
33 | Cc1sc(-c2ccccc2)cc1C(=O)c1sc(NC2CCCC2)nc1N [Compound 2-20, (4-Amino-2-cyclopentylamino-thiazol-5-yl)-(2-methyl-5-phenyl-thiophen-3-yl)-methanone] | > 5.00 | > 5.00 |  |  | 
34 | Cc1c(C(=O)c2sc(NC3CCCC3)nc2N)cnn1-c1ccccc1 [Compound 2-21, (4-Amino-2-cyclopentylamino-thiazol-5-yl)-(5-methyl-1-phenyl-1H-pyrazol-4-yl)-methanone] | > 5.00 | > 5.00 |  |  | 
35 | Cc1nc(-c2cnccn2)sc1C(=O)c1sc(NC2CCCC2)nc1N [Compound 2-22, (4-Amino-2-cyclopentylamino-thiazol-5-yl)-(4-methyl-2-pyrazin-2-yl-thiazol-5-yl)-methanone] | > 5.00 | > 5.00 |  |  | 
36 | Nc1nc(Nc2ccc(Cl)cc2)sc1C(=O)c1cccc([N+](=O)[O-])c1 [Compound 2-24, [4-Amino-2-(4-chloro-phenylamino)-thiazol-5-yl]-(3-nitro-phenyl)-methanone] |  |  | > 5.00 | > 5.00 | 
